Patent US20230101403A1, “METHOD OF TREATING OR AMELIORATING CANCERS DRIVEN BY RECEPTOR TYROSINE KINASE FUSION ONCOGENES, AND COMPOSITIONS FOR THE SAME” (THE TRUSTEES OF THE UNIVERSITY OF PENNSYLVANIA, priority 2021, published 2023)

How the values were obtained:
[1] = system: ppErk, STE-1 cells expressing optoFGFR; test: functional profiling: optoFGFR blue light stimulation, single-cell ppErk immunofluorescence; assay type: cell-based; conditions: STE-1 optoFGFR
Description: FIG. 1A illustrates that EML4-ALK+ cancer cells treated with ALK specific tyrosine kinase inhibitor (TKI) often result in a population of persistent/tolerant cells that later develop into resistant colonies. […] FIG. 1C, left panel, illustrates that transmembrane RTK and EML4-ALK protein granules both signal through the same adapter proteins and downstream pathways like Ras/Erk. FIG. 1C, right panel, illustrates the functional profiling method used in determining the extent to which EML4-ALK expression or its inhibition alter signal transmission in cancer cells. FIG. 1D illustrates that optoFGFR allows for blue light stimulation of RTK (optoFGFR) signal transduction. […] FIG. 1F depicts the normalized ppErk fold-change in response to 5 min of blue light stimulation. Blue light intensity ranged from 2% to 60% of maximum (1.45 W/cm^2). Datapoints show mean single-cell ppErk intensity from three replicates.
A method called functional profiling that allows the measurement of how oncogenes and targeted therapies can alter signal transmission was developed. In functional profiling, light-activated ‘optogenetic’ signaling stimuli are apply at specific nodes of a signaling pathway and downstream signals, transcription, and cell fate as a function of oncogene or drug status are observe.
To determine whether EML4-ALK could alter RTK signal transmission properties, a light-sensitive fibroblast growth factor receptor (optoFGFR) was expressed in the STE-1 cancer cell line, which is driven by the EML4-ALK(V1) oncogene. The present study observed signal transmission by applying blue light stimuli and measuring single-cell phospho-Erk levels single-cell immunofluorescence (FIG. 1D). In STE-1 cells, optoFGFR induced only mild double-phosphorylated Erk (ppErk) signal increase above the high basal ppErk levels attributed to active EML4-ALK (FIG. 1E, top). […] Signal dynamic range increased due to lowering of tonic Erk activity from ALK, as well as from an increase in the maximum signal achievable relative to untreated cells. […]

ppErk, H3122 cells = test: EGF-induced ppErk induction in H3122 cells; assay type: cell-based; conditions: 100 ng/mL EGF, pre-treatment 1 μM
Description: Data points represent mean single cell ppErk intensity of three replicates.
(§3) To determine whether such negative regulation could be observed in the context of native epidermal growth factor receptor (EGFR) signaling, the present study measured ppErk induction upon addition of epidermal growth factor (EGF) in STE-1 and H3122 cells, two NSCLC cell lines driven by EML4-ALK(V1) (FIG. 2A).
(§4) To determine whether the mechanism was predominantly transcriptional or post-translational, the required duration of ALKi pre-incubation to observe an increase in dynamic range was examined. both STE-1 and H3122 cells were preincubated with varying durations of ALK inhibition, and ppErk levels in response to 15 min of EGF stimulation was analyzed.

[2] = system: ppErk, STE-1 and H3122 cancer cells; test: single-cell ppErk levels as a function of treatment duration; assay type: cell-based; conditions: serum-starved
Description: The present study sought to understand whether relief of EGFR inhibition by EML4-ALK might lead to Erk reactivation in STE-1 and H3122 cancer cells. […] The present study thus further examined Erk reactivation under ALK inhibition combined with marimastat, an inhibitor for matrix metalloproteases that are required for shedding EGF family ligands prior to paracrine signaling.

[3] = system: Erk activity, STE-1 cells; test: live cell imaging of Erk kinase translocation reporter (ErkKTR); assay type: cell-based; conditions: for effect on ErkKTR: Erk activity and reactivation pulses: crizotinib 1 μM, erlotinib 1 μM, marimastat 10 μM
Description: (§1) Error bars represent 95% confidence intervals. […] FIG. 4I depicts the comparison of EGR1 expression after 6 hr of inhibitor treatment. […] FIG. 5B is the schematic of spatial analysis of Erk signaling in relation to dying cells. Cells within a 32 μm radius of a dying cell were considered neighbors of the dying cell, whereas all other cells were non-neighbors. Neighbors/non-neighbors were identified and tracked for 50 min before the death event, and Erk actvity in these cells was quantified. FIG. 5C depicts the quantification of Erk activity pulses in neighbors (“N”) or non-neighbors (“R”) of each cell-death event in the indicated conditions.
To further understand Erk reactivation, the present study observed Erk activity using live cell imaging of the Erk kinase translocation reporter (ErkKTR) in STE-1 cells (FIG. 4A). ErkKTR is a fluorescence reporter whose localization corresponds with Erk activity: the nuclear localization of ErkKTR indicates low activity of Erk while the cytoplasmic localization indicates high activity of Erk.

EGR1, STE-1 cells = test: EGR1 expression in individual cells after drug treatment; assay type: cell-based
Description: as §1

[4] = system: Erk activity, STE-1 cells
Description: as §1
The present study next sought to determine the source of the paracrine signals. […] Signal activation near dying cells was quantified by first identifying the time and location of each cell death event. All cells that were within a 100-pixel radius (˜32 μm, or about a 2-cell radius) of the dying cell for the 50 minutes preceding death were then identified. The present study refers to these as the “neighbors” of the dying cell (FIG. 5B). The present study then counted Erk pulses in the neighbors of a death event and compared to Erk pulses from a randomly selected subset of non-neighbors over that same time interval.

STE-1 cells [5] = test: cell death in cells imaged over 24 hrs; assay type: cell-based
STE-1 cells [6] = test: caspase-3 activity reporter (Nucview) in STE-1; assay type: cell-based; conditions: for killing over untreated cells, single agent: 24 hr
Description: (§2) FIG. 6C depicts the quantification of death in STE-1 cells following 24 hrs of inhibitor treatment. FIG. 6D depicts the number of Erk pulses in cells that died (“D”) and cells that lived (“L”) during 24 hrs of inhibitor treatment. FIG. 6E depicts the percentage of caspase-3+ STE-1 and H3122 cells following 24 hrs of inhibitor treatment.
Percent of Caspase-3 positive cells assessed using NucView 488 afterfive days of treatment with the indicated inhibitors: Alecitinib 1 μM, Erlotinib 1 μM, Marimastat 10 μM.

H3122 cells = test: caspase-3 activity reporter (Nucview) in H3122; assay type: cell-based; conditions: for killing over untreated cells, single agent: 24 hr
Description: as §2

ppErk, STE-1 cells = test: EGF-induced ppErk induction in STE-1 cells; conditions: 100 ng/mL EGF, pre-treatment 1 μM
Description: Data points represent mean single cell ppErk intensity of three replicates. FIG. 2C depicts the quantification of dynamic range of ppErk induction from experiment in 2C performed over a range of EGF concentrations. […] FIG. 2E depicts the ppErk immunofluoresence intensity response to 50 ng/mL EGF stimulation.
as §3, §4

| SMILES | dynamic range of signal induction (ppErk) ([1]; blue light, pre-treatment 1 μM) [fold] | light stimulation at which increase of dynamic range could be observed ([1]; 1 μM) | dynamic range plateau (induction) at the highest light levels ([1]; 1 μM, highest levels of light stimulation) [fold] | ppErk dynamic range in response to EGF (ppErk, H3122 cells) | time to reappearance of ERK-hi cells [2] [h] | time within which mean Erk levels decreased dramatically [2] [min] | ErkKTR localization upon treatment ([3]; 1 μM) | time EGR1 levels remained low (EGR1, STE-1 cells) | EGR1 expression (EGR1-high population) (EGR1, STE-1 cells; crizotinib 1 μM, erlotinib 1 μM) | median Erk pulses per cell, neighbors of a death ([4]; 50 minutes preceding death, within ~32 μm) [pulses per cell] | proportion of neighbor cells with at least 1 pulse preceding a death event ([4]; neighbors) [%] | proportion of non-neighbor cells with at least 1 pulse preceding a death event ([4]; non-neighbors) [%] | Erk pulses in surviving cells compared to cells that died (STE-1 cells [5]; 24 hrs) | cell death, % of cells analyzed (STE-1 cells [5]; imaged over 24 hrs) [%] | caspase-3-positive cell fraction (STE-1 cells [6]; first 24 hr of treatment) [%] | caspase-3-positive cell fraction (H3122 cells; first 24 hr of treatment) [%] | ppErk dynamic range in response to EGF (ppErk, STE-1 cells) | effect on ErkKTR: Erk activity and reactivation pulses [3] | killing over untreated cells, single agent (STE-1 cells [6]) | killing over untreated cells, single agent (H3122 cells) |
| --- | --- | --- | --- | --- | --- | --- | --- | --- | --- | --- | --- | --- | --- | --- | --- | --- | --- | --- | --- | --- |
| C[C@@H](Oc1cc(-c2cnn(C3CCNCC3)c2)cnc1N)c1c(Cl)ccc(F)c1Cl [crizotinib] | ~18 | ≤ 5 % maximal light stimulation | ~25 | dramatic increase in ppErk dynamic range | ≤ 1 | ≤ 10 | induced rapid nuclear translocation of ErkKTR in all cells | at least 2 hrs | a distinct peak of EGR1-high cells appeared and grew at 4 and 6 hrs after drug treatment | 0.23 | 60 | 20 | surviving cells showed an increased number of Erk pulses compared to cells that died | ~40 | 25 | 5 | dramatic increase in ppErk dynamic range | – | – | – |
| C#Cc1cccc(Nc2ncnc3cc(OCCOC)c(OCCOC)cc23)c1 [erlotinib] | – | – | – | – | – | – | – | – | – | – | – | – | – | – | – | – | – | no obvious effect on ErkKTR | Neither erlotinib or marimastat treatment alone showed enhanced killing over untreated cells | Neither erlotinib or marimastat treatment alone showed enhanced killing over untreated cells |
| CNC(=O)[C@@H](NC(=O)[C@H](CC(C)C)[C@H](O)C(=O)NO)C(C)(C)C [marimastat] | – | – | – | – | – | – | – | – | – | – | – | – | – | – | – | – | – | no obvious effect on ErkKTR | Neither erlotinib or marimastat treatment alone showed enhanced killing over untreated cells | Neither erlotinib or marimastat treatment alone showed enhanced killing over untreated cells |
